Source: US12163953B2, “P-phenylene ethynylene compounds as bioactive and detection agents” (STC.UNM, priority 2014, dated 2024)

Key:
Assay type in all cases: binding, hen
[1] = target: T1, HEWL fibrils incubated for different lengths of time (Gallus gallus, UniProt P00698); test: Fluorescence enhancement of dyes versus HEWL incubation time; conditions: dye 10 μM, HEWL 10 μM monomer basis
T1 construct: Lyophilized HEWL was dissolved at 10 mg/mL in 10 mM pH 3 sodium citrate buffer with 0.1 M NaCl; purchased Sigma-Aldrich; host or cells: hen egg white; fibrillised in house (pH 3, 70 °C, stirred)
T1 sequence (P00698 19-147): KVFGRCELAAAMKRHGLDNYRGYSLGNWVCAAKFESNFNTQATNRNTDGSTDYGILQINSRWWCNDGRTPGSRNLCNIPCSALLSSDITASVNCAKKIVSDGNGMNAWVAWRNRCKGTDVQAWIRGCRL
Method: Hen egg white lysozyme (HEWL) was used to form fibrillary amyloid aggregates for use in this study. […] For these experiments. HEWL (Sigma-Aldrich) was incubated at 70′C and a concentration of 350 μM in pH 3 sodium citrate buffer (10 mM) with 100 mM NaCl.
A plot of normalized fluorescence enhancement for all four PEs and Thioflavin T with HEWL fibrils incubated for different lengths of time is shown in FIG. 15. PE1+ and PE2+ track amyloid formation in roughly the same way as ThT, showing a sigmoidal curve with onset of a logarithmic growth phase occurring at the same time, around 1 hour of incubation. The plateau phase, as monitored by fluorescence of any of those three PEs or ThT, appeared at 2 hours incubation.
(§1) For studies of fluorescence enhancement vs. protein incubation time, dyes were mixed with protein sample in phosphate buffer (10 mM, pH 7.4) at equal monomer concentration of 10 μM in the wells of a standard 96-well plate. Emission spectra were obtained using top read with a SpectraMax M2e plate-reading spectrophotometer (Molecular Devices, Sunnyvale, CA). Experiments were performed in duplicate and errors are reported as standard deviation. For analysis of bound PE excitation and emission spectra and protein-PE energy transfer, PEs (500 nM) were mixed with protein sample (5 μM, monomer basis) in phosphate buffer and the solution transferred to a quartz, fluorometry cuvette. Spectra were obtained on a PTI QuantaMaster 40 steady state spectrofluorometer (HORIBA Scientific, Edison, NJ).

HEWL amyloids = target: T2, HEWL amyloids (Gallus gallus, UniProt P00698); test: Excitation and emission spectra of PEs with HEWL amyloids; conditions: PE 500 nM, HEWL amyloid 5 μM monomer basis
T2 construct: Lyophilized HEWL was dissolved at 10 mg/mL in 10 mM pH 3 sodium citrate buffer with 0.1 M NaCl; purchased Sigma-Aldrich; host or cells: hen egg white; fibrillised in house (pH 3, 70 °C, stirred)
T2 sequence (P00698 19-147): as above
Method: Excitation and emission spectra of PEs in phosphate buffer alone, with monomeric HEWL and with HEWL amyloids (8 h incubated) are shown in FIGS. 18A-H, and relevant photophysical properties are summarized in Table 1. FIGS. 18A-H illustrate excitation (A, B, C, D) and emission (right; E, F, G. H) spectra of PEs (A, E: PE1+; B, F: PE1−; C, G: PE2+; D, H: PE3+) in phosphate buffer (PB, pH 7.4, 10 mM) alone (long dashed line) with HEWL monomers (short dashed line) and with HEWL amyloids (solid line); PE concentration: 500 nM, protein concentration: 5 μM monomer basis/0.25 mg/mL; emission and excitation wavelengths, respectively, were chosen as shown in Table 1 for each sample. A 10:1 molar ratio of protein to PE was used for these experiments. Absorbance spectra were taken, but background light scattering from insoluble amyloid aggregates made them difficult to interpret, so “fluorescence detected absorbance” in the form of excitation spectra was used instead. Normalized excitation and emission spectra, in which peak shifts and lineshape changes of spectra were somewhat easier to visualize, were used. […] PE1+ (FIG. 18E) had no change in wavelength or lineshape of emission spectrum, just a large increase in intensity when mixed with amyloids. The excitation spectra (FIGS. 18A, B, C, D) show a notable bathochromic shift for each PE in solution mixed with amyloid, of 23, 27, 35 and 29 nm for PE1+, PE2+, PE3+ and PE1−, respectively, observing only the low-energy band. The high-energy band, less relevant for imaging purposes, was also bathochromically shifted. […] PE1− had similar excitation spectrum (FIG. 18B) with monomer and amyloid, except for a large intensity difference.
Lyophilized HEWL was dissolved at 10 mg/mL in 10 mM pH 3 sodium citrate buffer with 0.1 M NaCl. The solution was incubated in a 70C oil bath and magnetically stirred at 250 rpm for 12 h, and aliquots were withdrawn at half-hour intervals. […] Half of each aliquot was immediately diluted into pH 7.4 phosphate buffer to prevent further influence of acidic conditions and stored at 4C.
as §1

HEWL amyloid fibrils = target: T3, HEWL amyloid fibrils (Gallus gallus, UniProt P00698); test: Induced circular dichroism of PE-amyloid complexes; conditions: PEs 10 μM, HEWL 10 μM monomer basis
T3 construct: Lyophilized HEWL was dissolved at 10 mg/mL in 10 mM pH 3 sodium citrate buffer with 0.1 M NaCl; purchased Sigma-Aldrich; host or cells: hen egg white; fibrillised in house (pH 3, 70 °C, stirred)
T3 sequence (P00698 19-147): as above
Method: Circular dichroism measurements were performed to determine if the intrinsic chirality of the HEWL fibrils was transferred to the PE chromophore by a chiral backbone twist or an “excitonic” chiral supramolecular aggregate. CD spectroscopy (CPEs in PB with HEWL monomer and with HEWL amyloid; performed for (a): PE1+; (b): PE1−; (c): PE2+; (d): PE3+; PEs 10 μM, HEWL 10 μM monomer basis/0.5 mg/mL) indicated induced circular dichroism of PEs when bound to HEWL amyloids. As expected, no PE had optical activity by itself in phosphate buffer solution and none of the PEs had any CD with HEWL monomer, including PE1−. […] PE2+ and PE3+ gave rise to similar CD spectra, with more intense bands in the spectrum for PE3+.
PEs and protein samples were diluted in phosphate buffer, gently vortexed, and read in a 1 mm pathlength quartz CD cuvette using an Aviv 410 CD spectrometer (Aviv Biomedical, Lakewood, NJ), 15 s averaging time. A blank spectrum (PB only) was subtracted from each sample to remove background activity. Error bars are standard deviation over multiple reads of a single sample as reported by the instrument.

Structure (SMILES)	HEWL incubation time at which the plateau phase of fluorescence enhancement appears [1]	bathochromic shift of excitation spectrum, low-energy band, with amyloid (HEWL amyloids) [nm]	blueshifting of the fluorescence maximum with amyloid (HEWL amyloids) [nm]	λem (PB w/ HEWL) (HEWL amyloids) [nm]	λex (PB w/HEWL), high-energy band (HEWL amyloids) [nm]	λex (PB w/HEWL), low-energy band (HEWL amyloids) [nm]	induced circular dichroism with HEWL amyloid (HEWL amyloid fibrils)
CCOC(=O)c1ccc(C#Cc2cc(OCC[N+](C)(C)C)c(C#Cc3ccc(C#Cc4cc(OCC[N+](C)(C)C)c(C#Cc5ccc(C#Cc6cc(OCC[N+](C)(C)C)c(C#Cc7ccc(C(=O)OCC)cc7)cc6OCC[N+](C)(C)C)cc5)cc4OCC[N+](C)(C)C)cc3)cc2OCC[N+](C)(C)C)cc1 [PE3+]	up to 3.5 hours	35	~10	453	335	434	strong induced CD with a negative Cotton effect
CCOC(=O)c1ccc(C#Cc2cc(OCC[N+](C)(C)C)c(C#Cc3ccc(C#Cc4cc(OCC[N+](C)(C)C)c(C#Cc5ccc(C(=O)OCC)cc5)cc4OCC[N+](C)(C)C)cc3)cc2OCC[N+](C)(C)C)cc1 [PE2+]	2 h	27	~10	445	337	426	strong induced CD with a negative Cotton effect
